Data: publication PMC9609767, “Radiosynthesis and Preclinical Evaluation of an ^18F-Labeled Triazolopyridopyrazine-Based Inhibitor for Neuroimaging of the Phosphodiesterase 2A (PDE2A)” (Pharmaceuticals, 2022)
Several values for one entry are separate records, joined by “and”; a condition that tells them apart may be missing. Equal entries are not always repeated. Where two headings read alike, the source gives them in different places.

Key:
rat PDE2A = molecular target: T1, rat PDE2A (Rattus norvegicus, UniProt Q01062); experiment: In vitro autoradiography with rat brain cryosections; assay type: binding; details: co-incubation with 1 µM inhibitor
T1 construct: Frozen sagittal 12 µm brain sections obtained from female SPRD and male Wistar-Han rats; from tissue; host or cells: rat brain cryosections (female SPRD and male Wistar-Han rats)
T1 sequence (Q01062 1-928): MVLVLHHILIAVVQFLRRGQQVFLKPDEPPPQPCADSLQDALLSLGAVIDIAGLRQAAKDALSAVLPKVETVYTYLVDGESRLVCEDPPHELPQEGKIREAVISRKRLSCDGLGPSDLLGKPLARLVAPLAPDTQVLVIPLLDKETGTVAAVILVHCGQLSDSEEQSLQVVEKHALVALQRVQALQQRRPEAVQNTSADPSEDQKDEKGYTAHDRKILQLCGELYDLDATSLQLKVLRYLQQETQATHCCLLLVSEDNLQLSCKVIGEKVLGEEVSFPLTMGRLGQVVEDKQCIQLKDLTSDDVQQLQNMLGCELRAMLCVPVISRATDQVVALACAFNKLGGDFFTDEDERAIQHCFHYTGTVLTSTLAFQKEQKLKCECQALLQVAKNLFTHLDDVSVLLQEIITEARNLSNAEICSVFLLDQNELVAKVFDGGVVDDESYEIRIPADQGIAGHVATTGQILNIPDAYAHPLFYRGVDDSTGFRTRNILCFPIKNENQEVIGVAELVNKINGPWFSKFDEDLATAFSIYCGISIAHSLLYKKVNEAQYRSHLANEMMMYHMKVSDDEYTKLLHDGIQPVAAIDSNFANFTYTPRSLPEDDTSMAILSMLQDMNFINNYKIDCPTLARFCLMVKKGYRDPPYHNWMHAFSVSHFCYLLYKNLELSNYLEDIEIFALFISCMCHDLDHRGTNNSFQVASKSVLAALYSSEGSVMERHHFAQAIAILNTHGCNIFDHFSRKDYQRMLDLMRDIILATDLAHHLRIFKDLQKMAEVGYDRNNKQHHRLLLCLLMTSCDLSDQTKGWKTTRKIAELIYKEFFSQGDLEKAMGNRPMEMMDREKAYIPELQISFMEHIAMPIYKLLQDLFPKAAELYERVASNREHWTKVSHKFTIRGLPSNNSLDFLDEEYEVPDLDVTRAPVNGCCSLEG
Method: Frozen sagittal 12 µm brain sections obtained from female SPRD and male Wistar-Han rats (10–12 weeks old) were thawed, dried in a stream of cold air, and pre-incubated for 15 min with incubation buffer (50 mM TRIS-HCl, pH 7.4; supplemented with 1 mM MgCl2, 1 mM CaCl2, 2 mM KCl, and 2 U/mL Adenosine deaminase) at ambient temperature. Afterwards, the buffer was decanted and the cryosections dried again in a stream of cold air before covering with the radioligand in incubation buffer (~0.1 MBq [^18F]11/mL; Am at the time of the incubation ~10 GBq/µmol) for incubation at ambient temperature for 90 min.
The incubation was terminated by pouring off the incubation solution and washing the slides twice with ice-cold buffer (50 mM TRIS-HCl, pH 7.4/4 °C) for 2 min and rinsing by dipping in ice-cold demineralised water. Immediately afterwards, the sections were dried in a stream of cold air and exposed along with appropriate radioactive standards (1 µL of serial dilutions of the radioligand in incubation buffer, pipetted on a microscopic glass slide and air dried) to an ^18F-sensitive image plate for 120 min. Finally, the imaging plate was scanned at the highest possible resolution (pixel size 12.6 µm × 12.6 µm) in a phosphor imager (HD-CR 35; Duerr NDT GmbH, Bietigheim Bissingen, Germany) and the digital image analysed with an image analysis program (Aida Image Analyzer v. 4.26; Elysia-raytest GmbH, Straubenhardt, Germany).
For the determination of the protein concentration, four dried 12 µm cryosections were scraped from the microscopic glass slides, transferred in an Eppendorf tube and solubilised with 200 µL of demineralised water. The protein concentration of this solution was determined by a commercial assay (Pierce™ BCA Protein Assay Kit, Thermo Fisher Scientific, Schwerte, Germany). The area of the cryosections was determined during the analysis of the digitized autoradiographic images, and the volume was calculated by multiplying the area with the thickness of the slices. Finally, the protein concentration of the tissue was calculated (37 mg protein/g wet weight).

bovine PDE2A = test system: bovine PDE2A; parameters: method as in PMID 15555642; details: cited from earlier work
human PDE2A = test system: human PDE2A; parameters: method as in PMID 15555642; details: cited from earlier work
PDE2A [1] = test system: PDE2A; parameters: method as in earlier work; details: cited from earlier work
PDE10A [2] = experiment: Inhibitory potency against PDE10A; assay type: biochemical; details: PDE2A vs. PDE10A
PDE10A [3] = test system: PDE10A; parameters: method as in earlier work; details: read-out: IC50, PDE10A (PDE10A1); cited from earlier work
PDE2A [4] = details: cited from earlier work

Row | Compound | blocking of [18F]11 binding in rat brain sections (rat PDE2A) | IC50 (bovine PDE2A) | IC50 (human PDE2A) | IC50 (PDE2A [1]) | selectivity vs. PDE10A (PDE10A [2]) | IC50 (PDE10A [3]) | IC50 (PDE2A [4])
1 | COc1ccc(Cc2nn3c([C@@H](CCCc4ccccc4)[C@@H](C)O)nc(C)c3c(=O)[nH]2)cc1OC [BAY60-7550] | completely blocked | 2 nM | 4.7 nM |  |  |  | 
2 | CCCC(O)c1ccc(F)c(-c2nnc3c(C)nc4ccc(C5CC5)nc4n23)c1 (centres unmarked) [Compound 11, 1-[3-(2-Cyclopropyl-6-methylpyrido[3,2-e][1,2,4]triazolo[4,3-a]pyrazin-9-yl)-4-fluorophenyl]butan-1-ol] |  |  |  | 1.99 nM | ~1000 fold | ~2000 nM and 1910 nM | 
3 | Cc1nc(-c2cnn(C)c2-c2ccc(C(F)(F)F)cn2)c2c(N3CCC3)ncnn12 [PF-05180999, reference compound] | completely blocked |  |  |  |  |  | 1.6 nM
